Patent US20250162973A1, “METHODS OF SYNTHESIS AND USES OF AGRIMOL COMPOUNDS” (Versitech Limited, priority 2022, published 2025)

Legend:
[1] = Safety in xenograft mice (body weight, H&E staining); assay type: in vivo
Description: (§1) In vivo anticancer efficacy of AGB was evaluated using the human tumor xenograft model, in which human cancer cells were inoculated into immune-deficiency mice. Briefly, twelve six-week-old (16-18 g) BALB/c nude mice were randomly divided into two groups and both received subcutaneous injection of NCI-H460 cells (2 million cells in 0.1 mL PBS) at its right flank of mice and tumor became palpable after three days of injection. Mice were received intravenous (i.v.) injections of AGB or vehicle control (10% DMSO and 0.05% Tween 80 in normal saline) every two days in two weeks. The length and width of tumor were measured by Vernier caliper and the body weight was monitored every two or three days. At the end of experiment, mice were sacrificed and decapitated. The liver, kidney, and tumor were collected and fixed in 4% formaldehyde for further haematoxylin and eosin (H&E) staining. All animal experiments in this project received human care and study protocols complied with the guidelines of the Laboratory Animal Services Centre of the University of Hong Kong. Tumor sizes and body weight were recorded before the drug injection every time and tumor volume (V) was calculated by the formula V=LW^2/2, where L is tumor length and W is tumor width. The relative tumor volume that normalized to day 0 was used to monitor the tumor growth. Data in each group was shown as mean±standard deviation.
The in vivo antitumor potential of AGB using the xenograft mouse model was assessed. Two different cancer cells (NCI-H460 and A549) were inoculated subcutaneously into the nude mice. Non-obese diabetic severe combined immunodeficient (NOD/SCID) mice were used for stem-like NCI-H460 cells. The mice were then treated by tail intravenous injection with vehicle or AGB (3 mg/kg). […] To further evaluate the safety of AGB, hematoxylin-eosin (H&E) staining of the kidney, liver, and tumor samples were performed (FIG. 1K). The necrotic area (circled by dashed line) in the tumor tissue from mice treated with AGB was much larger than that in vehicle group.

[2] = system: U2OS cells transfected with mitochondrial-RFP reporter gene; test: Time-lapse microscopy of mitochondrial morphology; assay type: cell-based, human; conditions: 30 hour, 4 μM AGB treatment
Description: Another cluster highlighted in the ProTargetMiner analysis was related to mitochondrial translation and respiration function. Time-lapse microscopy was used to monitor the changes of mitochondrial morphology during a 30 hour, 4 μM AGB treatment using U2OS cells transfected with mitochondrial-RFP reporter gene (data not shown). AGB indeed triggers dynamic changes of mitochondria. As shown in the movie recorded using time-lapse microscopy (data not shown), about 5 hours after the start of the imaging, mitochondria changed to a thread-like, very elongated morphology. Then the threads slowly broke up. At about 10 h, the mitochondria became small dots and these dots got brighter. At the end of the movie (about 30 h treatment), some cells underwent mitochondrial outer membrane permeabilization (the abrupt loss of fluorescence in mitochondria) and died.

NCI-H460 cells = test: Apoptosis assays (Hoechst, annexin V/PI, Western blotting); assay type: cell-based, human
Description: FIG. 4 is a graph showing AGB induced apoptosis in NCI-H460 cells by the Annexin-V/PI double-staining assay. After treating with AGB for 24 h and 36 h, respectively, cells were stained with annexin V-FITC and propidium iodide and analyzed by flow cytometry.
The mitochondrial fission and mitochondrial membrane potential depolarization are involved in the induction of cell apoptosis and also play a central role to the apoptotic pathway. Therefore, several apoptosis assays were performed. […] Induction of apoptosis by AGB in NCI-H460 cells was further supported through monitoring PARP, caspase-9, and caspase-3 cleavage as well as through changes in the levels of a panel of proteins commonly involved in apoptotic signaling via Western blotting experiments (data not shown).

[3] = system: cancer stem cells (NCI-H460 tumorspheres); test: MTT assay on tumorspheres (cancer stem cells); assay type: cell-based; conditions: Homo sapiens, 72-h treatment
Description: For IC50 determination of sphere, similar procedures were performed as mentioned above. Briefly, cells were plated in 96-well clear flat bottom ultra-low attachment cell culture plates (Corning®) with a density of 5*10^3 cells into each well with specific sphere formation medium (DMEM/F12 medium supplemented with 20 ng/mL EGF, 20 ng/mL bFGF, 2% B27). The cells were then treated with AGB at different concentrations, ranging from 0.3 to 100 μM. After 3 days of treatment, the formed tumorspheres in each well were monitored under microscope. The MTT was then applied to determine the cell viability and the cell viability of AGB-treatment group was calculated via normalization to control groups and the IC50 value was calculated from the plot curve that fitted to a Boltzmann sigmoidal function.

NCI-H460 xenograft = test: Human tumor xenograft model; assay type: in vivo, BALB/c nude mice; conditions: AGB 3 mg/kg, tail intravenous injection
Description: as §1, with “The relative tumor volume that normalized to day 0 was used to monitor the tumor growth. Data in each group was shown as mean±standard deviation.” left out
The in vivo antitumor potential of AGB using the xenograft mouse model was assessed. […]

TALDO1 = molecular target: T1, TALDO1 (Homo sapiens, UniProt P37837); test: Targeted metabolomics of PPP intermediates and intracellular NADPH; assay type: cell-based; conditions: after treatment of AGB
T1 construct: endogenous in cells
T1 sequence (P37837 1-337): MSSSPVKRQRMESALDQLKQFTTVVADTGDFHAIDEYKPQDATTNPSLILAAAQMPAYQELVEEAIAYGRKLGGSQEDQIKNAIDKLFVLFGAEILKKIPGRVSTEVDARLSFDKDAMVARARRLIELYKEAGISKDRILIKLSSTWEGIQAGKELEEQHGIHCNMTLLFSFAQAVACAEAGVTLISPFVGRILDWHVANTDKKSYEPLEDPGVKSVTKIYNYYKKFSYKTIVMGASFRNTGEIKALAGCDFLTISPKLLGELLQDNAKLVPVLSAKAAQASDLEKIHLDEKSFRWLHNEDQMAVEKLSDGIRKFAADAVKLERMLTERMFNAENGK
Description: TALDO1 is a key enzyme of the nonoxidative PPP providing ribose-5-phosphate for nucleic acid synthesis and NADPH (the reduced form of Nicotinamide adenine dinucleotide phosphate) for lipid biosynthesis. Targeted metabolomics analysis was performed for measuring of the intermediate metabolites involved in the PPP pathway. […] PPP activation has been widely found in different types of cancer because of the uncontrolled proliferation of cancer cells. […] Moreover, enhanced production of NADPH is crucial to increase the intracellular redox power of cancer cells to escape from oxidative stress.

SMILES: CCCC(=O)c1c(O)c(Cc2c(O)c(Cc3c(O)c(C)c(OC)c(C(=O)CCC)c3O)c(O)c(C(=O)[C@@H](C)CC)c2O)c(O)c(C)c1OC [AGB, Agrimol B]
- observable toxicity (body weight of mice) ([1]; 3 mg/kg of AGB): did not show any observable toxicity
- liver and kidney histology (H&E) ([1]; after treatment with AGB): did not show any obvious change
- necrotic area in the tumor tissue vs vehicle group (H&E) ([1]; mice treated with AGB): much larger
- mitochondrial morphology [2]: cells underwent a mitochondrial fission
- Hoechst staining (NCI-H460 cells): chromatin condensation and fragmentation
- release of mitochondrial factors to cytosol (NCI-H460 cells): release of cytochrome c and apoptosis inducing factor AIF
- annexin V and PI flow cytometry (NCI-H460 cells; 24 h and 36 h AGB treatment): increase of the early and late apoptotic cell populations
- IC50 [3]: 4 µM
- tumor growth inhibition rate (NCI-H460 xenograft): 57%
- PPP intermediate metabolites (TALDO1): significantly decreased
- intracellular content of NADPH (TALDO1): significant decrease
